According to article PMC8634379, “From the Design to the In Vivo Evaluation of Benzohomoadamantane-Derived Soluble Epoxide Hydrolase Inhibitors for the Treatment of Acute Pancreatitis” (Journal of Medicinal Chemistry, 2021):
Values after ≈ are worked out from the molar mass of the structure shown.

How the values were obtained:
Caco-2 cell permeability = type: in vitro ADME; conditions: human; for Papp A→B at 2 h, 10 µM / Papp B→A at 2 h, 10 µM: 37 °C; for efflux ratio at 2 h, 10 µM: ER = (Papp B→A)/(Papp A→B)
Method: The Caco-2 cells were cultured to confluency, trypsinized, and seeded onto a 96-filter transwell insert (Corning) at a density of ∼10,000 cells/well in DMEM cell culture medium supplemented with 10% fetal bovine serum, 2 mM L-glutamine, and 1% penicillin/streptomycin. Confluent Caco-2 cells were subcultured at passages 58–62 and grown in a humidified atmosphere of 5% CO2 at 37 °C. […] The cell monolayers were used for transport studies 21 days post seeding. […] Stock solutions were made in dimethyl sulfoxide (DMSO) and further diluted in HBSS (final DMSO concentration 1%). Each compound and reference compounds (Colchicine, E3S) were all tested at a final concentration of 10 μM. For A → B directional transport, the donor working solution was added to the apical (A) compartment and the transport media as receiver working solution was added to the basolateral (B) compartment. For B → A directional transport, the donor working was added to the basolateral (B) compartment and transport media as receiver working solution was added to the apical (A) compartment. The cells were incubated at 37 °C for 2 h with gentle stirring.
At the end of the incubation, samples were taken from both donor and receiver compartments and transferred into 384-well plates and analyzed by ultraperformance liquid chromatography–tandem mass spectrometry (UPLC–MS/MS). The detection was performed using an ACQUITY UPLC/Xevo TQD System.

human LOX-5 (hLOX-5) = target: T1, human LOX-5 (hLOX-5) (Homo sapiens, UniProt P09917); assay: Inhibition of hLOX-5; type: biochemical
T1 construct: purchased Cayman Chemical
T1 sequence (P09917 1-674): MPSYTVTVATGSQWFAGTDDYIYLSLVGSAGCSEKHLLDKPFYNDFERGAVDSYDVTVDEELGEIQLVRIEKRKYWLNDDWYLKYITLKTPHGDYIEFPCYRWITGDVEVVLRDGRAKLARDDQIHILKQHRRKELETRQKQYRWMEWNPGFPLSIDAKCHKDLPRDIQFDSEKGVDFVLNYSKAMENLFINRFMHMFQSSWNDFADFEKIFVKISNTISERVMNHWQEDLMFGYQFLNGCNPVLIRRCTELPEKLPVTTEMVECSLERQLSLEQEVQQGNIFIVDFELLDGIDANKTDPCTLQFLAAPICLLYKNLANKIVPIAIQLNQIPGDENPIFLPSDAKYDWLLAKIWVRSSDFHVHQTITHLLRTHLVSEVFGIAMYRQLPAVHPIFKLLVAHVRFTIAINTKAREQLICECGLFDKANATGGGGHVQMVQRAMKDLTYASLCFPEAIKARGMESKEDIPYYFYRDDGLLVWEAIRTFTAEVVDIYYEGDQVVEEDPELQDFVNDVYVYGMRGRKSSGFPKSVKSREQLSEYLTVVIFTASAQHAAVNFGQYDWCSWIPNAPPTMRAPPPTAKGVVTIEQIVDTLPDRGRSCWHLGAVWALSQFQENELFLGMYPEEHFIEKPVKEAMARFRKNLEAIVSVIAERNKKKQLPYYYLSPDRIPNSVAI
Method: AA and 2′,7′-dichlorodihydrofluorescein diacetate (H2DCFDA) were obtained from Sigma. Human recombinant LOX-5 was purchased from Cayman Chemical. For the determination of hLOX-5 activity, the method described by Pufahl et al. was followed.[51] The assay solution consisted of 50 mM Tris (pH 7.5), 2 mM EDTA, 2 mM CaCl2, 3 μM AA, 10 μM ATP, 10 μM H2DCFDA, and 100 mU/well hLOX-5. For the enzyme inhibition studies, the compounds to be tested were added to the assay solution prior to AA and ATP and were preincubated for a period of 10 min at room temperature, after which AA and ATP were added. The enzymatic reaction was carried out for 20 min and terminated by the addition of 40 μL of acetonitrile.

Microsomal stability [1] = type: in vitro ADME, human; conditions: after 60 min incubation, NADP, 37 °C
Method: (§1) The human, rat, and mice recombinant microsomes employed were purchased from Tebu–Xenotech. […] Samples (75 μL) were taken from each well at 0, 10, 20, 40, and 60 min and transferred to a plate containing 4 °C 75 μL of acetonitrile and 30 μL of 0.5% formic acid in water were added for improving the chromatographic conditions. The plate was centrifuged ([…], 30 min) and supernatants were taken and analyzed by an ultraperformance liquid chromatograph–tandem mass spectrometer (Xevo-TQD, Waters) by employing a BEH C18 column and an isocratic gradient of 0.1% formic acid in water: 0.1% formic acid acetonitrile (60:40). The metabolic stability of the compounds was calculated from the logarithm of the remaining compounds at each of the time points studied.

Microsomal stability [2] = type: in vitro ADME, mice; conditions: after 60 min incubation, NADP, 37 °C
Method: as §1

[3] = Solubility in 1% DMSO: 99% PBS (nephelometry); type: physicochemical; conditions: PBS with 1% DMSO, 1% DMSO: 99% PBS buffer solution, 37 °C
Method: A 10 mM stock solution of the compound was serially diluted in 100% DMSO and 1 μL of this solution was added to a 384-well UV-transparent plate (Greiner) containing 99 μL of PBS. The plate was incubated at 37 °C for 2 h and the light scattering was measured in a Nephelostar Plus reader (BMG LABTECH). The data were fitted to a segmented linear regression for measuring the compound solubility.

human COX-2 (hCOX-2) = target: T2, human COX-2 (hCOX-2) (Homo sapiens, UniProt P35354); assay: Inhibition of hCOX-2 (Eurofins, catalogue reference 4186); type: biochemical; conditions: for IC50: performed by Eurofins
T2 sequence (P35354 18-604): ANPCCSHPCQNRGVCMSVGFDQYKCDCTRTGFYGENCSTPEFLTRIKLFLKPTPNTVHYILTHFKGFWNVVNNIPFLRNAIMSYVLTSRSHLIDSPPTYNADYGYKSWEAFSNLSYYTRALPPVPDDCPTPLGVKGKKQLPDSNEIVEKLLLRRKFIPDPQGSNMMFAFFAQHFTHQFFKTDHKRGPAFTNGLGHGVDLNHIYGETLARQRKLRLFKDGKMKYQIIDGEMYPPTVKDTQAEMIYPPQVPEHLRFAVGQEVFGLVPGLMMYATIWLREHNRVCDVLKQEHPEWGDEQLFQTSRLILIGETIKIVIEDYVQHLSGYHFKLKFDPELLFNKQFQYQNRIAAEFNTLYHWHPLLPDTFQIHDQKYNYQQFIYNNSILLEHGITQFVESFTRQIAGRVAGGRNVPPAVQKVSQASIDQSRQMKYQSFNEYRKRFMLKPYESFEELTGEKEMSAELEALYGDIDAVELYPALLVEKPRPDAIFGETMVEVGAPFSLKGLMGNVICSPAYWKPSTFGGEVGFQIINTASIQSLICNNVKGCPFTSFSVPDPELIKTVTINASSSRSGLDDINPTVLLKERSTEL

Microsomal stability [4] = conditions: after 60 min incubation, NADP, 37 °C
Method: as §1

Row | Compound | Papp A→B at 2 h, 10 µM (Caco-2 cell permeability) [×10⁻⁶ cm/s] | Papp B→A at 2 h, 10 µM (Caco-2 cell permeability) [×10⁻⁶ cm/s] | efflux ratio at 2 h, 10 µM (Caco-2 cell permeability) | IC50 (human LOX-5 (hLOX-5)) [µM] | inhibition of hLOX-5 (selectivity) (human LOX-5 (hLOX-5)) | microsomal stability, percentage of remaining compound (human) (Microsomal stability [1]) [%] | microsomal stability, percentage of remaining compound (mice) (Microsomal stability [2]) [%] | solubility at 2 h [3] [µM] | inhibition of hCOX-2 (selectivity) (human COX-2 (hCOX-2)) | IC50 (human COX-2 (hCOX-2)) [µM] | microsomal stability, percentage of remaining compound (rat) (Microsomal stability [4]) [%]
1 | CC12CC3CC(NC(=O)N[C@H]4CC[C@H](Oc5ccc(C(=O)O)cc5)CC4)(CC(C1)c1ccccc13)C2 [Compound 20, 4-[((1r,4r)-4-(3-(9-Methyl-5,6,8,9,10,11-Hexahydro-7H-5,9:7,11-dimethanobenzo[9]annulen-7-yl)ureido)cyclohexyl)oxy]benzoic Acid] | 1 | 12.4 | 12.4 | > 100 | Neither 20 nor the halogenated analogues 22 and 23 significantly inhibited | 70 | 10 | 4 (≈ 1.95 µg/mL) | Neither 20 nor the halogenated analogues 22 and 23 significantly inhibited | > 10 | 2
2 | O=C(NC12CC3CC(Cl)(CC(C1)c1ccccc13)C2)N[C@H]1CC[C@H](Oc2ccc(C(=O)O)cc2)CC1 [Compound 22, 4-[((1r,4r)-4-(3-(9-Chloro-5,6,8,9,10,11-hexahydro-7H-5,9:7,11-dimethanobenzo[9]annulen-7-yl)ureido)cyclohexyl)oxy]benzoic Acid] | 2.15 | 4.66 |  | > 100 |  | 89 | 29 | 13 (≈ 6.62 µg/mL) |  | > 10 | 52
3 | O=C(NC12CC3CC(F)(CC(C1)c1ccccc13)C2)N[C@H]1CC[C@H](Oc2ccc(C(=O)O)cc2)CC1 [Compound 23, 4-[((1r,4r)-4-(3-(9-Fluoro-5,6,8,9,10,11-hexahydro-7H-5,9:7,11-dimethanobenzo[9]annulen-7-yl)ureido)cyclohexyl)oxy]benzoic Acid] | 0.09 | 21.9 | 244 | > 100 | Neither 20 nor the halogenated analogues 22 and 23 significantly inhibited | 77 | 36 | 7 (≈ 3.45 µg/mL) | Neither 20 nor the halogenated analogues 22 and 23 significantly inhibited | > 10 | 60
